Consider nine compounds from patent publication US5739131A, “Benzene derivatives and pharmaceutical composition” (Kureha Chemical Industry Co., Ltd., priority 1994, dated 1998).

In one data set the test system is mice. Nature of the data set: Acute toxicity, single oral dose. The format is in vivo. On the procedure:
Five-week-old ICR female mice (5 mice per group) were bred for acclimation for a week. Then, the compounds of the present invention were dissolved or dispersed in an aqueous solution of 0.5% methylcellulose, and orally administered to the mice in a single dosage (500 mg/kg).

In data set [1] the target is T1, angiotensin II receptor subtype 1 (AT1) (Oryctolagus cuniculus, UniProt P34976).
T1 construct: receptor: from adrenal glands in rabbits; from tissue; host or cells: rabbit adrenal glands
T1 sequence (P34976 1-359): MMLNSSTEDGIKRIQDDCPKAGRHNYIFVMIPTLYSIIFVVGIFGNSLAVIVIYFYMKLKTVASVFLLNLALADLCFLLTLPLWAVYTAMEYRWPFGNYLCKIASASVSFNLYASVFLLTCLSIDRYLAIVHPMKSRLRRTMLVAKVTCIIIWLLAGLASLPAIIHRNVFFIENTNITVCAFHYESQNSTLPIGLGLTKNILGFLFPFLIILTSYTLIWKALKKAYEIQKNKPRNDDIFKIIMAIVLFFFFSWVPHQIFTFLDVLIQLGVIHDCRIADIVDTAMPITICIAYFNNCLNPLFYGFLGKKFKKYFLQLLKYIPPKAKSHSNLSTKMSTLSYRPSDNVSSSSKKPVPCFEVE
Nature of the data set: Binding assay, angiotensin II receptor subtype 1 (AT1). Also on record: species or system rabbit (adrenal glands). The conditions noted are these: 100 μM, AT1, rabbit adrenal glands. Here is the method: (§1) In this Example, the affinity to the angiotensin II receptor subtype 1 or subtype 2 was evaluated by a binding assay in accordance with the method described in Biochem. Pharmacol., 33, 4057-4062 (1984).
(§2) Specifically, the measurement of the total binding in the presence of each drug was performed as follows:
(§3) A mixture (final volume=0.25 ml) of a drug in a given concentration (the drug was dissolved in DMSO, and diluted to a double volume with a buffer attached to a drug discovery system to prepare sample for the assay; 0.025 ml), a tracer (0.025 ml), and receptors (0.2 ml) was incubated [in the case of the angiotensin II receptor subtype 1 (AT1), at room temperature for 3 hours, and in the case of the subtype 2 (AT2), at 37° C. for 1 hour]. Then, the reaction mixture was filtered with suction (GF/C filter was used in AT1, and GF/B filter was used in AT2). The filter papers after filtration with suction (the tracer bound to the receptors) were counted by a γ-well counter (ARC-500, Aloka). The non-specific bindings were measured by repeating the above method, except that a large excess amount of a displacer was added. The specific binding of the drug in the given concentration was calculated by subtracting the non-specific binding from the total binding, respectively.
(§4) In AT1 and AT2, the percentages to inhibit the bindings of radioactive ligands (tracer) to receptors by the drugs to be tested (IC50 value of concentration to show 50% inhibition, or binding inhibition % in 100 μM) were measured, using the drugs to be tested and control drugs in the given concentration.

Data set [2] addresses T2, angiotensin II receptor subtype 2 (AT2) (Bos taurus, UniProt G5E6F7).
T2 construct: receptor: from cerebellar cortex in bovine; from tissue; host or cells: bovine cerebellar cortex
T2 sequence (G5E6F7 1-362): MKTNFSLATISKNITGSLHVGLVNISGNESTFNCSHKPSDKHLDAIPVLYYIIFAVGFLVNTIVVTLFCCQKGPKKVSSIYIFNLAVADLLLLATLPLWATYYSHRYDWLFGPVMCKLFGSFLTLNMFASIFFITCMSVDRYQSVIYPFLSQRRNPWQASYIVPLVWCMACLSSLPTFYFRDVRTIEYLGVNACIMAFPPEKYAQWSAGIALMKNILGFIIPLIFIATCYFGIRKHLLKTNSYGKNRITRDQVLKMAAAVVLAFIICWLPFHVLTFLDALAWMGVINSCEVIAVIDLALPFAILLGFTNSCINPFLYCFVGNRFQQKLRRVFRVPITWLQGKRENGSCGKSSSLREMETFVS
Nature of the data set: Binding assay, angiotensin II receptor subtype 2 (AT2). Further details: species or system bovine (cerebellar cortex). The conditions noted are these: 100 μM, AT2, bovine cerebellar cortex, 37° C. 1 hour; read-out: Binding inhibition % in 100 μm, AT2. Here is the method: as §1, §2, §3, §4
receptor: from cerebellar cortex in bovine
tracer: ^125 ITyr^4angiotensin II
control drug: angiotensin II (human)
(displacer): angiotensin II (human)

The test system of data set [3] is kidney disease model rats. Nature of the data set: Action to depress blood pressure (tail cuff method). The format is in vivo, Sprague-Dawley female rats. The conditions noted are these: systolic, average, 20 mg/kg per os, two days from administration; control (water) 203. Here is the method: The compounds of the present invention and the reference substance were forcedly administered per os to kidney disease model rats, and the action to depress blood pressure was observed. The kidney disease model rats were prepared by ligature of branches of renal artery in accordance with the conventional method, that is, the left hilum renalis of Sprague-Dawley female rats was exposed under anesthesia, and one of four secondary branches of renal artery was left unligated, while the remaining three branches were ligated, respectively. After a week, the hilum renalis (artery, vein, and ureter) of the right kidney were further ligated to thereby prepare the rats whose renal function was lowered to approximately 1/8 of the normal function. Each group consisted of eight rats. The drugs to be tested (20 mg/kg) were administered to each administering group, and only water was administered to control group. After two days from the administration, the systolic blood pressure was measured by the tail cuff method using a blood pressure measuring apparatus (UR5000; Ueda).

Data set [4] has as its system kidney disease model rats. Nature of the data set: Renal function indicatory value (action to kidney diseases). Format: in vivo, Sprague-Dawley female rats. The conditions noted are these: 20 mg/kg/day per os, two weeks; for Creatinine clearance: 24 hours urine, control 0.20; for Creatinine / Urea nitrogen: serum; for Creatinine: control 2.0; for Urea nitrogen: control 100. On the procedure:
The kidney disease model rats were prepared as in Example 115. Twenty-five groups (8 rats per group) were sleeked in a manner so that there were no major differences between each group in the serum creatinine value and the urea nitrogen value indicating renal function. The rats in each group were allowed to freely take up feed and water. […] To the rats in the control group, only water was forcedly administered per os every day. After two weeks, 0.2 ml of blood was collected from the carotid artery of the rat under anesthesia, and centrifuged to obtain serum. Using 25 μl of the serum, serum creatinine (Scr) was measured by a creatinine analytical instrument (Beckman). Using 10 μl of the serum, urea nitrogen (BUN) was measured by a BUN analytical instrument (Beckman). Creatinine clearance was evaluated as follows:
After serum creatinine measurement, rats were placed in urinary metabolic cages for 24 hours to collect urine. Urinary creatine concentration (Ucr) was measured by a creatinine analytical instrument, and total volume of urination (Uvol) was also measured. Creatinine clearance (CCr) was calculated by the following formula: [formula]

The test system of data set [5] is kidney disease model rats. Nature of the data set: Action to survival time of kidney diseased animals. The format is in vivo, Sprague-Dawley female rats. The conditions noted are these: 20 mg/kg/day per os, observation eight weeks (upper limit); control 5.0. On the procedure: The kidney disease model rats were prepared as in Example 115. Twenty-five groups (8 rats per group) were prepared in a manner so that there was no major difference between the groups in the serum creatinine value and the urea nitrogen value indicating renal function. The rats in each group were allowed to freely take up feed and water. […] To the rats in the control group, only water was forcedly administered per os every day. If kidney diseases are aggravated, the rat will die of uremia. Thus, the survival time was observed as comprehensive indication of the improvement effect on the kidney diseases. The observation period was eight weeks. Thus if all rats survived, the average survival time is eight weeks and it is an upper limit.

The term inhibition denotes how much of the control response was suppressed. With `CCCCC(=O)Nc1ccc(C(=O)N2CCOCC2)cc1NCc1ccc(C(=O)O)cc1` [Compound No. 1, 3-[(4-carboxyphenyl)methylamino]4-valeramidobenzoic acid morpholide], in the data set on mice (mice, single oral 500 mg/kg, observed for 6 days, 5 per group), the “Number of deaths/number of survivals” value is recorded as 0/5. In data set [1], the inhibition at 100 µM amounted to 33%. In addition, the inhibition at 100 µM in data set [2] amounted to 0%. The compound also returned a Blood pressure in data set [3] of 196 mmHg. In data set [4], this compound came in with a Creatinine clearance of 0.34 mL/min, a Creatinine of 1.6 mg/dL and a Urea nitrogen of 75 mg/dL. Moreover, the Average survival time in data set [5] turned out to be 7.1 weeks.
For `CCCCCN(C)c1ccc(C(=O)N2CCOCC2)cc1NCc1ccc(C(=O)O)cc1` [Compound No. 41, 4-(N-n-amyl-N-methyl)amino-3-[(4-carboxyphenyl)methyl]aminobenzoic acid morpholide], the “Number of deaths/number of survivals” value in the data set with mice (mouse, in vivo, po, 500 mg/kg) was 0/5. This compound also gave an inhibition at 100 µM in data set [1] of 26%. Also, the inhibition at 100 µM in data set [2] was 0%. This compound also returned a Blood pressure in data set [3] of 195 mmHg. Moreover, in data set [4], the Creatinine clearance is 0.36 mL/min, the Creatinine worked out at 1.6 mg/dL and the Urea nitrogen worked out at 72 mg/dL. For the same compound, the Average survival time in data set [5] is 7.6 weeks.
Turning to `CCCCCCc1ccc(C(=O)N2CCOCC2)cc1NCc1ccc(C(=O)O)cc1` [Compound No. 75, 3-[(4-carboxyphenyl)methyl]amino-4-hexylbenzoic acid morpholide], the inhibition at 100 µM is 15% in data set [1] and 0% in data set [2].
In the case of `CCCCC(=O)N(Cc1ccc(C(=O)O)cc1)c1cccc(C(=O)N2CCOCC2)c1` [Compound No. 90, 3-[N-(4-carboxyphenyl)methyl]valeramidobenzoic acid morpholide], the “Number of deaths/number of survivals” value in the data set on mice (mouse, in vivo, po, 500 mg/kg) is 0/5. Also, at 100 µM the inhibition in data set [1] was 30%. Further, the inhibition at 100 µM in data set [2] is 0%. The compound also came in with a Blood pressure in data set [3] of 194 mmHg. In data set [4], the Creatinine clearance was determined as 0.38 mL/min, the Creatinine amounted to 1.5 mg/dL and the Urea nitrogen came out at 70 mg/dL. In addition, the Average survival time in data set [5] was 7.6 weeks.
Consider `CCCCCN(Cc1ccc(C(=O)O)cc1)c1cccc(C(=O)N2CCOCC2)c1` [Compound No. 158, 3-[N-(4-carboxyphenyl)methyl]-n-amylaminobenzoic acid morpholide], for which the “Number of deaths/number of survivals” value in the data set with mice (mouse, in vivo, po, 500 mg/kg) is recorded as 0/5. In data set [1], this compound returned an inhibition at 100 µM of 18%. Further, in data set [2], the inhibition at 100 µM turned out to be 0%. The same compound returned a Blood pressure in data set [3] of 190 mmHg. In data set [4], this compound came in with a Creatinine clearance of 0.37 mL/min, a Creatinine of 1.7 mg/dL and a Urea nitrogen of 74 mg/dL. In data set [5], this compound displayed an Average survival time of 7.2 weeks.
For `CCCCC(=O)N(Cc1ccc(C(=O)O)cc1)c1cc(C(=O)N2CCOCC2)ccc1N(C)C` [Compound No. 184, 3-N-[[(4-carboxyphenyl)methyl]valeramido]-4-dimethylaminobenzoic acid morpholide], the “Number of deaths/number of survivals” value with mice (mouse, in vivo, po, 500 mg/kg) was 0/5. In data set [1], this compound showed an inhibition at 100 µM of 0%. Also, the inhibition at 100 µM in data set [2] is 0%. This compound also yielded a Blood pressure in data set [3] of 195 mmHg. Moreover, in data set [4], the Creatinine clearance came to 0.38 mL/min, the Creatinine was 1.5 mg/dL and the Urea nitrogen was 70 mg/dL. This compound also returned an Average survival time in data set [5] of 7.6 weeks.
On to `CCCNC(=O)N(Cc1ccc(C(=O)O)cc1)c1cc(C(=O)N2CCOCC2)ccc1N(C)C` [Compound No. 225], for which the “Number of deaths/number of survivals” value in the data set on mice (mouse, in vivo, po, 500 mg/kg) is reported as 0/5. The compound further showed an inhibition at 100 µM in data set [1] of 4%. Further, in data set [2], the inhibition at 100 µM amounted to 0%. Besides, the Blood pressure in data set [3] is on record as 195 mmHg. Further, in data set [4], the Creatinine clearance came out at 0.25 mL/min, the Creatinine amounted to 1.8 mg/dL and the Urea nitrogen stood at 73 mg/dL. The Average survival time in data set [5] stood at 7.0 weeks.
Consider `CCCCCN(Cc1ccc(C(=O)O)cc1)c1cc(C(=O)N2CCOCC2)ccc1N(C)C` [Compound No. 252, 4-dimethylamino-3-[N-(4-carboxyphenyl)methyl]-n-amylaminobenzoic acid morpholide], for which the “Number of deaths/number of survivals” value with mice (mouse, in vivo, po, 500 mg/kg) was 0/5. In data set [1], this compound returned an inhibition at 100 µM of 34%. In data set [2], the inhibition at 100 µM was 0%. Besides, in data set [3], the Blood pressure was 200 mmHg. In data set [4], this compound came in with a Creatinine clearance of 0.28 mL/min, a Creatinine of 1.7 mg/dL and a Urea nitrogen of 73 mg/dL. The same compound came in with an Average survival time in data set [5] of 7.0 weeks.
As for `CCCCC(=O)N(Cc1ccc(C(=O)O)cc1)c1cc(S(=O)(=O)N2CCOCC2)ccc1N(C)C` [Compound No. 597, 4-[[3-N-[(4-carboxyphenyl)methyl]valeramido-4-dimethylaminobenzene]sulfonyl]morpholine], the inhibition at 100 µM in data set [1] and in data set [2] was 0% throughout.
